According to patent US11660354B2, “Inhibitor-functionalized ultrasmall nanoparticles and methods thereof” (Memorial Sloan Kettering Cancer Center, priority 2016, dated 2023):
Read-outs that look alike come from different tables or passages of the source. Square brackets hold non-standard residues; d marks the D form. Sta = CC(C)C[C@H](N)[C@@H](O)CC(=O)O; Ahx = NCCCCCC(=O)O

Columns and labels:
[1] = test system: PC lesion and metastatic LNs; test: Clinical PET with ^68Ga-RM2 and ^68Ga-PSMA-11 in prostate cancer patients; type: in vivo; conditions: patient with biochemical recurrence of PC
From the text: FIGS. 20A-20B show a patient with biochemical recurrence of PC imaged with PSMA ligand ^68Ga-PSMA-11 and GRPr ligand ^68Ga-RM2. ^68Ga-PSMA-11 scan acquired 4 weeks after the ^68Ga-RM2 scan. Retroperitoneal LN metastases are better visualized on the GRPr scan than on the PSMA scan.

TRAMP-C2 cell line = test: Binding of radiolabeled C′ dots to the TRAMP-C2 cell line; type: cell-based, mouse
From the text: The advantages of the TRAMP model are the development of disease that mirrors human pathology in an immune competent mouse, coupled with the formation of LN and bone metastases. Disadvantages are that the biology/physiology of mouse prostate is not the same as the human organ. For example, the mouse prostate is not a single organ, as in human, but has 4 lobes, different from the single organ human prostate. The advantage of the TRAMP model is the ability to image metastatic disease and nodal metastases with PSMA- and GRPr-targeting C′ dots using PET and fluorescence-based multiplexing. Binding studies of PSMAi-(^67Ga)NOTA-C′ dots and GRP-(^177Lu)DOTA-C′ dots to the TRAMP-C2 cell line were examined (FIG. 17). The TRAMP-C2 cell line was derived from TRAMP prostate tumors. Both the PSMAi-(^67Ga)NOTA-C′ dots and GRP-(^177Lu)DOTA-C′ dots bound the TRAMP-C2 cell line. […] This model enables proof-of-concept studies to be conducted for multiplexed detection of nodal metastases using a cocktail of PSMAi-PEG-Cy5.5-C′ dots and GRP-PEG-CW800-C′ dots.

LNCaP cells = test: Radiolabeled particle cell binding and internalization, LNCaP cells; type: cell-based
Method: (§1) Blocking studies show specific uptake.
(§2) PSMAi-(^64Cu)NOTA-C′ dots and GRP-(^177Lu)DOTA-C′ dots were examined for cell binding with LNCaP and PC3 cells (FIGS. 11A-11C). Cells were incubated with 100,000 CPM of PD10 purified radiolabeled C′ dots. PMPA and bombesin were used for blocking PSMAi and GRP radiolabeled C′ dots. After 3 PBS washes, the membrane surface-bound fraction was removed with 40 mM NaOAc (pH=4.5, 0.9% NaCl, 0.2% BSA), after which the cells were dissolved in NaOH to obtain internalized counts.

[2] = type: in vitro ADME; conditions: serum
Method: PSMAi-NOTA-C′ dots (21 μmol) were radiolabeled with ^64Cu or ^177Lu (210 pmol) in NH4Ac buffer pH 5.5 at 70° C. for 20 min. The average radiolabeling yields were 98.6% and 99.3% radiochemical purities of 98% and 99.9%. Stabilities of the radiolabeled particle complexes were examined in water, saline, and serum (Table 1).
In the final step, PSMA and GRPr targeted C′ dots can be radiolabeled with ^64Cu and ^67Ga at various concentrations (˜0.3-300 nmol) in acetate buffer (pH 5.5) for 30 min and at 70° C. to obtain PSMAi-(^64Cu)NOTA-C′ dots and GRP-(^67Ga)DOTA-C′ dots. For ^89Zr labeling, as-synthesized PSMAi-DFO-C′ dot can be incubated with ^89Zr-oxalate at 37° C. for 30 min (pH 7-8). Radiolabeled PSMA-targeting C′ dots and GRPr-targeting C′ dots can be purified using PD-10 (G-25) size exclusion chromatography. For radiolabeling experiments, specific radiolabeling parameters can be determined for optimal radiolabeling efficiencies and high specific activities. Labeling can begin with the conditions shown to produce the highest specific activity. Quality control includes ITLC, HPLC, and cell-based receptor binding bioassays. Stability of radiolabeled C′ dots can be determined in H2O, PBS at 25° C. and mouse and human serum at 37° C.

PC3 cells = test: Radiolabeled particle cell binding and internalization, PC3 cells; type: cell-based
Method: as §1, §2

| Molecule | normal organ uptake [1] | binding to TRAMP-C2 cell line with RM2 peptide (TRAMP-C2 cell line; addition of an excess of GRPr targeting RM2 peptide) | binding to TRAMP-C2 cell line (TRAMP-C2 cell line; alone) | cell binding, uptake and internalization (LNCaP cells) | percent radiolabeled C′ dot stability ([2]; human, 1 h) | percent radiolabeled C′ dot stability ([2]; human, 4 h) | percent radiolabeled C′ dot stability ([2]; human, 24 h) | percent radiolabeled C′ dot stability ([2]; mouse, 1 h) | percent radiolabeled C′ dot stability ([2]; mouse, 4 h) | percent radiolabeled C′ dot stability ([2]; mouse, 24 h) | cell binding, uptake and internalization (PC3 cells) | binding in the presence of bombesin (PC3 cells; blocking with bombesin) |
| --- | --- | --- | --- | --- | --- | --- | --- | --- | --- | --- | --- | --- |
| O=C(O)CCc1ccc(O)c(CN(CCN(CC(=O)O)Cc2cc(CCC(=O)NCCCCCC(=O)NCCCC[C@H](NC(=O)N[C@@H](CCC(=O)O)C(=O)O)C(=O)O)ccc2O)CC(=O)O)c1 (68Ga complex, metal not drawn) [PSMA-11] | very high RES and renal uptake |  |  |  |  |  |  |  |  |  |  |  |
| GRP-(^177Lu)DOTA-C′ dots: GRP antagonist-DOTA peptide-functionalized C′ dots radiolabeled with ^177Lu ({Ac-Cys-Ahx-Ahx-K(DOTA)-4‑amino‑1‑carboxymethyl‑piperidine}-HQWAVGH[Sta]L-NH2; also: Cys thiol bound to maleimide-PEG-silane on silica nanoparticle, DOTA labelled with 177Lu) |  | significantly reduced | bound | low levels of binding | 99.9% | 99.9% | 99.8% | 99.9% | 99.8% | 98.6% | bound PC3 cells, but were not efficiently internalized | blocked |
